One may read the Ki as a dissociation constant, usually derived from enzyme kinetics or from competition with a known ligand. A lower Ki goes with higher affinity. Broadly, the Emax is the maximal effect, on the per cent scale that the assay sets. By IC50 is commonly meant the concentration that inhibits the measured activity by half. By inhibition is commonly meant the change of the read-out against control, counted positive when it falls.

The structures appear in SMILES notation. Calls of active or inactive are those of the source. The rule behind the calls is not given here.

The target in series [1] is T1, Prostaglandin D2 receptor 2 (Homo sapiens, UniProt Q9Y5Y4).
T1 sequence (Q9Y5Y4 whole entry): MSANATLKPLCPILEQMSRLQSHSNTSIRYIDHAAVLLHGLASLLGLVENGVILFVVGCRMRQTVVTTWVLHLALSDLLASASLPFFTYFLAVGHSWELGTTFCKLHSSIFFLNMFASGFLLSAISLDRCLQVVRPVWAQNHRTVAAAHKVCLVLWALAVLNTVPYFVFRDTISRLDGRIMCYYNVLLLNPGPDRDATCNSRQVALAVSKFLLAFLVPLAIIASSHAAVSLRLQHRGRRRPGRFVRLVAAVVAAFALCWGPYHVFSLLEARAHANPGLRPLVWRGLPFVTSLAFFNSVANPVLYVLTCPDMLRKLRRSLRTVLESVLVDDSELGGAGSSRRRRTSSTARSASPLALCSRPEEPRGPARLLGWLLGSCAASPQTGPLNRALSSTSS
The experiment in a line: Displacement of [3HPGD2 from human CRTH2 receptor expressed in CHO cell membrane after 90 mins by scintillation proximity assay. In kind it is cell membranes. On the technique in general: Scintillation proximity formats need no separation of bound from free tracer.

Series [2] addresses T2, Prostaglandin D2 receptor 2 (Homo sapiens) (UniProt Q9Y5Y4).
T2 sequence (whole entry): T1 sequence (Q9Y5Y4 whole entry)
The series is described as follows: Agonist activity at human CRTH2 receptor expressed in CHO cell membrane assessed as induction of [35S]GTPgammaS binding at 20 uM after 30 mins by microbeta scintillation counting relative to PGD2. In kind it is functional, cell membranes. (In general: Binding of GTPγS marks nucleotide exchange on a G protein.)

Series [3] in a line: Intrinsic clearance in rat liver microsomes assessed per mg protein at 1 uM up to 45 mins by LC/MS analysis. Conditions: read-out: CLH. In kind it is ADME, Microsome. For orientation: Liver microsomes are vesicles of endoplasmic reticulum, rich in cytochrome P450 enzymes.
In another series the target is Cytochrome P450 2C9 (Homo sapiens, UniProt P11712). The series is described as follows: Inhibition of human recombinant CYP2C9 incubated for 15 mins prior to substrate addition measured after 30 mins by spectrophotometry. In kind it is ADME.
Series [4] concerns the target T1, Prostaglandin D2 receptor 2. The series is described as follows: Antagonist activity at human CRTH2 receptor expressed in CHO cell membrane assessed as inhibition of PGD2-induced [35S]GTPgammaS binding after 30 mins by microbeta scintillation counting. In kind it is functional, cell membranes.
In the next series the target is T3, Cytochrome P450 2C8 (Homo sapiens, UniProt P10632).
T3 sequence (P10632 whole entry): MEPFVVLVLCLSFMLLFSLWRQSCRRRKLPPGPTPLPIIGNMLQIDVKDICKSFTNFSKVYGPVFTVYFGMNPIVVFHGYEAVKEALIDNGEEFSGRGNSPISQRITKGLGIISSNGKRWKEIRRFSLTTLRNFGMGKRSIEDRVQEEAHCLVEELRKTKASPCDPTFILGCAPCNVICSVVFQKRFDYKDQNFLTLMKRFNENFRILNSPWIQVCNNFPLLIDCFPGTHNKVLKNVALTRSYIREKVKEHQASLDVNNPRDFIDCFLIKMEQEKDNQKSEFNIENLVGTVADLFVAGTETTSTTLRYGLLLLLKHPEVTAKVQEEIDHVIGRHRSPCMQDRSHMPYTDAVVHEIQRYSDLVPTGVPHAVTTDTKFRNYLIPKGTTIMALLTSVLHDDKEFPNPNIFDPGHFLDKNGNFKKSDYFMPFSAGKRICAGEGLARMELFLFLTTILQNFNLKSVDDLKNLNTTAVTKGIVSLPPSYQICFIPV
The series is described as follows: Inhibition of human recombinant CYP2C8 incubated for 15 mins prior to substrate addition measured after 30 mins by spectrophotometry. In kind it is ADME.

The target of series [5] is T2, Prostaglandin D2 receptor 2 (Homo sapiens). The experiment in a line: Antagonist activity at human CRTH2 receptor expressed in CHO cell membrane assessed as inhibition of PGD2-induced [35S]GTPgammaS binding at 2 uM after 30 mins by microbeta scintillation counting relative to control. In kind it is functional, cell membranes.
Series [6] in a line: Intrinsic clearance in human liver microsomes assessed per mg protein at 1 uM up to 45 mins by LC/MS analysis. In kind it is ADME, Microsome. Conditions: read-out: CLH.
A further series concerns the target Cytochrome P450 2C19 (Homo sapiens, UniProt P33261). The series is described as follows: Inhibition of human recombinant CYP2C19 incubated for 15 mins prior to substrate addition measured after 30 mins by spectrophotometry. In kind it is ADME.

Sequence of Cytochrome P450 2C19 (P33261 whole entry): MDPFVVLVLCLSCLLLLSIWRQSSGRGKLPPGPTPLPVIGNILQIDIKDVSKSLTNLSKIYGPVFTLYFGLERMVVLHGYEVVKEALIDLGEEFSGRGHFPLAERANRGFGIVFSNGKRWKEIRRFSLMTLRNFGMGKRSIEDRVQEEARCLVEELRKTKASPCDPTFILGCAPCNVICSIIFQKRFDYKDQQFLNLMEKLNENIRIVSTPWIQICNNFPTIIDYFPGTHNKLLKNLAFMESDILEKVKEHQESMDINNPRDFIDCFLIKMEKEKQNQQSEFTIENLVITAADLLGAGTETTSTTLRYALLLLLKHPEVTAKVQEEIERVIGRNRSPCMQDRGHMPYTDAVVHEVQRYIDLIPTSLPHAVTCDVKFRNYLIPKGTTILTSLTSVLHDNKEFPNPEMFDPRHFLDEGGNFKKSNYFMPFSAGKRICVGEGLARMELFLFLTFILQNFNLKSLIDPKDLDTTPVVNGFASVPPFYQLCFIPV
Sequence of Cytochrome P450 2C9 (P11712 whole entry): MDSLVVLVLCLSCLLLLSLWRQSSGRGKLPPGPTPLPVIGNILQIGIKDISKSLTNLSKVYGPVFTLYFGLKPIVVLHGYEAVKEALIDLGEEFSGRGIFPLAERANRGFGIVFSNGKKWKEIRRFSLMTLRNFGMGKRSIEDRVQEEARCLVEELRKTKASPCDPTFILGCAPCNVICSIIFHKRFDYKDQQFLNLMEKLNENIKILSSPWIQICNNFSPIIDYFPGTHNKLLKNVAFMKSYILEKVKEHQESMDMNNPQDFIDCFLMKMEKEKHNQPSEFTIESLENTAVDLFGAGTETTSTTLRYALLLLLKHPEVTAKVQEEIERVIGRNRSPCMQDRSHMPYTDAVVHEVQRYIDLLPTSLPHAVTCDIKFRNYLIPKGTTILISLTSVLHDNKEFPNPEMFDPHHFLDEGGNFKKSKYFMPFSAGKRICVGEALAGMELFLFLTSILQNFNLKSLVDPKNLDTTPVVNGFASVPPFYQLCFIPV

For the compound `CCCCC(=O)N(Cc1cccc(OC)c1)c1cccc(-c2nnn[nH]2)c1`, the affinity in [1], expressed as Ki, was 44 nM.
Still for that read-out and setting: next, `CCC(=O)N(Cc1ccc(S(C)(=O)=O)cc1)c1cccc(-c2nnn[nH]2)c1`: 69 nM.
On the same count and under the same terms, next, `CS(=O)(=O)c1ccc(CN(C(=O)c2cccnc2)c2cc(F)cc(-c3nnn[nH]3)c2)cc1`: 4 nM; `CCC(=O)N(Cc1cccc(OC)c1)c1cccc(-c2nnn[nH]2)c1`: 360 nM.
Turning to `CS(=O)(=O)c1ccc(CN(C(=O)c2ccccc2)c2cc(F)cc(-c3nnn[nH]3)c2)cc1`, the affinity in series [1], expressed as Ki, was 2.2 nM.
`CC(C)C(=O)N(Cc1ccc(S(C)(=O)=O)cc1)c1cc(F)cc(-c2nnn[nH]2)c1` gave a Ki in [1] of 17 nM.
For the compound `CC(C)CC(=O)N(Cc1ccc(S(C)(=O)=O)cc1)c1cc(F)cc(-c2nnn[nH]2)c1`, in [2], the Emax result was “inactive”. In addition, the microsomal CLint at 1 µM in [3] and in series [6] was 17 µL/min/mg throughout. Further, the IC50 on Cytochrome P450 2C9 was determined as 1700 nM; in series [4] it was 46 nM; on Cytochrome P450 2C8, 79 nM; at Cytochrome P450 2C19, 7500 nM. In [5], the inhibition turned out to be 85%. In [1], this compound came in with a Ki of 3.2 nM.
On to `CCC(=O)N(Cc1ccc2c(c1)OCCO2)c1cccc(-c2nnn[nH]2)c1`, for which, in series [1], the Ki stood at 42 nM.
Still for that read-out and setting: next, `CCCCC(=O)N(Cc1ccc2c(c1)OCCO2)c1cc(-c2nnn[nH]2)c(F)cc1F`: 45 nM; `CCC(=O)N(Cc1ccccc1)c1cccc(-c2nnn[nH]2)c1`: 1800 nM; `CCC(=O)N(Cc1ccc2c(c1)OCO2)c1cccc(-c2nnn[nH]2)c1`: 130 nM.
`CCCCC(=O)N(Cc1cccc(OC)c1)c1cc(F)cc(-c2nnn[nH]2)c1` came in with a Ki in series [1] of 3 nM.
With `CCC(=O)N(Cc1cccc(OC)c1)c1cc(F)cc(-c2nnn[nH]2)c1`, the Emax in [2] is -11%. In series [4], the IC50 amounted to 64 nM. Besides, the inhibition in [5] turned out to be 107%. Further, the Ki in [1] worked out at 8.2 nM.
On to `CS(=O)(=O)c1ccc(CN(C(=O)c2ccncc2)c2cc(F)cc(-c3nnn[nH]3)c2)cc1`, for which the affinity in series [1] corresponds to a Ki of 17 nM.
`CCCCC(=O)N(Cc1ccc2ccccc2c1)c1cc(-c2nnn[nH]2)ccc1F` came in with a Ki in [1] of 18 nM.
On to `CCCCC(=O)N(Cc1ccc2c(c1)OCCO2)c1cccc(CC(=O)O)c1`, for which the Ki in series [1] is 4300 nM.
For the compound `CCCCC(=O)N(Cc1ccc2c(c1)OCCO2)c1cccc(-c2nnn[nH]2)c1`, the microsomal CLint at 1 µM in series [3] was 125 µL/min/mg; in series [6], over 1000 µL/min/mg. The IC50 amounted to 640 nM at Cytochrome P450 2C9, 570 nM at Cytochrome P450 2C8 and 680 nM on Cytochrome P450 2C19. Also, the affinity in [1], expressed as Ki, was 7 nM.
In the case of `CCCCC(=O)N(Cc1ccc2c(c1)OCCO2)c1cc(-c2nnn[nH]2)ccc1F`, in series [1], the affinity corresponds to a Ki of 3.3 nM.
In the case of `C#Cc1cccc(CN(C(C)=O)c2cc(-c3nnn[nH]3)ccc2F)c1`, in series [1], the affinity corresponds to a Ki of 140 nM.
As to `CCC(=O)N(Cc1cccc(O)c1)c1cc(F)cc(-c2nnn[nH]2)c1`, the Emax in series [2] is -17%. Besides, the figures for the microsomal CLint at 1 µM in series [3] and in series [6] were 10 µL/min/mg and 55 µL/min/mg, respectively. Further, the figures for the IC50 at Cytochrome P450 2C9, at Cytochrome P450 2C8 and at Cytochrome P450 2C19 were 2000 nM, 970 nM and 3700 nM, respectively. Further, the inhibition in series [5] amounted to 106%.
With `CCCCC(=O)N(Cc1ccc2ccccc2c1)c1cccc(-c2nnn[nH]2)c1`, the affinity in series [1], expressed as Ki, was 39 nM.
For the compound `CCC(=O)N(Cc1cccc(OC(C)C)c1)c1cc(F)cc(-c2nnn[nH]2)c1`, the microsomal CLint at 1 µM in series [3] was determined as 30 µL/min/mg; in [6] it was 1700 µL/min/mg. In addition, the IC50 at Cytochrome P450 2C9 stood at 340 nM; on Cytochrome P450 2C8, 470 nM; on Cytochrome P450 2C19, 900 nM. Further, the inhibitory constant (Ki) in [1] came to 6.4 nM.
`CCC(=O)N(Cc1ccc(O)cc1)c1cc(F)cc(-c2nnn[nH]2)c1` registered a Ki in series [1] of 22 nM.
Same read-out and setting: next, `CCCC(=O)N(Cc1ccc2c(c1)OCCO2)c1cccc(-c2nnn[nH]2)c1`: 12 nM.
The same measure, in the same setting: next, `CC(C)CC(=O)N(Cc1ccc2c(c1)OCCO2)c1cc(-c2nnn[nH]2)ccc1F`: 5.6 nM; `CCCCC(=O)N(Cc1cccs1)c1cccc(-c2nnn[nH]2)c1`: 620 nM; `CCCCC(=O)N(Cc1cc2ccccc2o1)c1cc(-c2nnn[nH]2)ccc1F`: 7.1 nM.
In the case of `CCC(=O)N(Cc1ccc(OC)cc1)c1cccc(-c2nnn[nH]2)c1`, affinity in series [1] was put at a Ki of 220 nM.
`CCC(=O)N(Cc1ccc2ccccc2n1)c1cc(F)cc(-c2nnn[nH]2)c1`: the Ki in [1] amounted to 56 nM.
The same measure, in the same setting: next, `CCCCC(=O)N(Cc1cccc(OC)c1)c1cccc(C(=O)O)c1`: 8000 nM.
In [1], `CCC(=O)N(Cc1ccc(OC)cc1)c1cc(F)cc(-c2nnn[nH]2)c1` showed a Ki of 7.6 nM.
`CCC(=O)N(Cc1ccc(F)cc1)c1cccc(-c2nnn[nH]2)c1` showed a Ki in series [1] of 1200 nM.
`CCCCC(=O)N(Cc1ccc(OC)cc1)c1cccc(-c2nnn[nH]2)c1`: the results for the microsomal CLint at 1 µM in series [3] and in series [6] were 43 µL/min/mg and over 1000 µL/min/mg, respectively. The IC50 was found to be 840 nM on Cytochrome P450 2C9, 320 nM at Cytochrome P450 2C8 and 260 nM at Cytochrome P450 2C19. In [1], this compound registered a Ki of 50 nM.
Compound `CCC(=O)N(Cc1cccc(C)c1)c1cccc(-c2nnn[nH]2)c1` had a Ki in [1] of 580 nM.
In series [1], `CCC(=O)N(Cc1ccccc1F)c1cccc(-c2nnn[nH]2)c1` yielded a Ki of 950 nM.
For the compound `CCC(=O)N(Cc1cccc(F)c1)c1cccc(-c2nnn[nH]2)c1`, affinity in series [1] was put at a Ki of 1400 nM.
In the case of `CCC(=O)N(Cc1ccc(S(C)(=O)=O)cc1)c1cc(F)cc(-c2nnn[nH]2)c1`, the microsomal CLint at 1 µM in series [3] and in [6] was under 10 µL/min/mg throughout. Besides, the figures for the IC50 on Cytochrome P450 2C9, at Cytochrome P450 2C8 and at Cytochrome P450 2C19 were over 20000 nM, 54 nM and 150 nM, respectively. This compound also displayed a Ki in [1] of 3.1 nM.
Consider `CCCCC(=O)N(Cc1ccc2cnccc2c1)c1cccc(-c2nnn[nH]2)c1`, for which, in series [1], the affinity, expressed as Ki, was 330 nM.
In turn, `CS(=O)(=O)c1ccc(CN(C(=O)C2CCOCC2)c2cc(F)cc(-c3nnn[nH]3)c2)cc1` had a Ki in series [1] of 28 nM.
On the same count and under the same terms, next, `CCCC(=O)N(Cc1ccc2c(c1)OCCO2)c1cc(-c2nnn[nH]2)ccc1F`: 4.9 nM.
In the case of `CCCCC(=O)N(Cc1ccc2c(c1)OCCO2)c1cc(F)cc(-c2nnn[nH]2)c1`, the Emax in series [2] is -15%. For the same compound, the IC50 in series [4] was 2.8 nM. In addition, in series [5], the inhibition was 102%. Also, the affinity in series [1], expressed as Ki, was 2 nM.
On to `CCC(=O)N(Cc1ccc(S(=O)(=O)C(F)(F)F)cc1)c1cc(F)cc(-c2nnn[nH]2)c1`, for which, in series [1], the Ki is 5.2 nM.
Still for that read-out and setting: next, `C#Cc1cccc(CN(C(=O)CCCC)c2cc(-c3nnn[nH]3)ccc2F)c1`: 10 nM; `Cc1ccc(CCC(=O)N(Cc2ccc(S(C)(=O)=O)cc2)c2cc(F)cc(-c3nnn[nH]3)c2)cc1`: 2.5 nM.
Still for that read-out and setting: next, `CCCCC(=O)N(Cc1ccc(OC)cc1)c1cc(F)cc(-c2nnn[nH]2)c1`: 3 nM; `CCC(=O)N(Cc1ccc2c(c1)OCCO2)c1cc(-c2nnn[nH]2)ccc1F`: 11 nM.
Turning to `CCCCC(=O)N(Cc1ccc(OC)cc1)c1cc(Cl)cc(-c2nnn[nH]2)c1`, the Emax in series [2] was -10%. Also, the IC50 in series [4] was 10 nM. Besides, the inhibition in series [5] came out at 110%. In addition, the affinity in series [1] corresponds to a Ki of 3.6 nM.
